In patent US9309242B2, “Substituted pyrido[2,3-b]pyrazines as FGFR kinase inhibitors” (priority 2011, dated 2016):

Tests used:
KDR (h) = KDR (h) (Homo sapiens, UniProt P35968); assay: KDR (VEGFR2) (enzymatic assay), TR-FRET; assay type: biochemical; conditions: read-out: VEGFR 2 (KDR) pIC50 (converted)
Method in brief: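 Enzyme at 150 ng/ml was incubated 120 min at room temperature with 500 nM Btn-Flt3 peptide and 3 μM ATP in 50 mM HEPES pH 7.5, 6 mM MnCl2, 1 mM DTT, 0.1 mM Na3VO4, 0.01% Triton-X-100, 1% DMSO final. EDTA stop with Eu-anti-P-Tyr/SA-XL-665, 60 min; TR-FRET read in RFU.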

[1] = target: T1, Ba/F3-FGFR3-transfected cells (Homo sapiens, UniProt P22607); assay: Ba/F3-FGFR3 (minus IL3) cellular proliferation assay, Alamar Blue; assay type: cell-based
T1 construct: BAF3-FGFR3 (MIN IL3) pIC50; other: minus IL3
T1 sequence (P22607 whole entry, change not shown): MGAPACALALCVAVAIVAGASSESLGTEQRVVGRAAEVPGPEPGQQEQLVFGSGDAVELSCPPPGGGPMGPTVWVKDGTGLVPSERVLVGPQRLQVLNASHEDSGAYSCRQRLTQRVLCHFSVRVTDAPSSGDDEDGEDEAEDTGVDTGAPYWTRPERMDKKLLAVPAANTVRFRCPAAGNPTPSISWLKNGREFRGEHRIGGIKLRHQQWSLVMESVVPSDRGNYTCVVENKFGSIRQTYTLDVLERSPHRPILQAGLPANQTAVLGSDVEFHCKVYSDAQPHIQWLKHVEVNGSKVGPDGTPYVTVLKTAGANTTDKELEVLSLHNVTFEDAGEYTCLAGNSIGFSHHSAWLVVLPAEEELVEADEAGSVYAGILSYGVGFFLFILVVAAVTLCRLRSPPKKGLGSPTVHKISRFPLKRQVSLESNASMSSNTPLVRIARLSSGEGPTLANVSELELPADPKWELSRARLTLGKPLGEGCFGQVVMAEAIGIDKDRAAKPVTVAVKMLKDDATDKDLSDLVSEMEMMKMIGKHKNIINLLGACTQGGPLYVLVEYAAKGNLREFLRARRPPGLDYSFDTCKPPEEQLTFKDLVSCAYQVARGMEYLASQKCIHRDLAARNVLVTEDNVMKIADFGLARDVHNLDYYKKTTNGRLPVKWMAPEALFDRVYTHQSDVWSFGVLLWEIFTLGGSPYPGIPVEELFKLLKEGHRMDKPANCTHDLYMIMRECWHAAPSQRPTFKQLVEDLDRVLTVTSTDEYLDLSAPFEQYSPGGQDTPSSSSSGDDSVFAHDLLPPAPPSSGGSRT
Method in brief: (§1)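 With or without 10 ng/ml murine IL3, FGFR3-dependent Ba/F3 cells were treated 24 h with compound, then viability was gauged by Alamar Blue fluorescence after 4 h (ex 540/em 590 nm).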

FGFR1 (h) = FGFR1 (h) (Homo sapiens, UniProt P11362); assay: FGFR1 (enzymatic assay), TR-FRET; assay type: biochemical; conditions: read-out: FGFR 1 pIC50 (converted)
Chain of FGFR1 (h) (P11362 22-822): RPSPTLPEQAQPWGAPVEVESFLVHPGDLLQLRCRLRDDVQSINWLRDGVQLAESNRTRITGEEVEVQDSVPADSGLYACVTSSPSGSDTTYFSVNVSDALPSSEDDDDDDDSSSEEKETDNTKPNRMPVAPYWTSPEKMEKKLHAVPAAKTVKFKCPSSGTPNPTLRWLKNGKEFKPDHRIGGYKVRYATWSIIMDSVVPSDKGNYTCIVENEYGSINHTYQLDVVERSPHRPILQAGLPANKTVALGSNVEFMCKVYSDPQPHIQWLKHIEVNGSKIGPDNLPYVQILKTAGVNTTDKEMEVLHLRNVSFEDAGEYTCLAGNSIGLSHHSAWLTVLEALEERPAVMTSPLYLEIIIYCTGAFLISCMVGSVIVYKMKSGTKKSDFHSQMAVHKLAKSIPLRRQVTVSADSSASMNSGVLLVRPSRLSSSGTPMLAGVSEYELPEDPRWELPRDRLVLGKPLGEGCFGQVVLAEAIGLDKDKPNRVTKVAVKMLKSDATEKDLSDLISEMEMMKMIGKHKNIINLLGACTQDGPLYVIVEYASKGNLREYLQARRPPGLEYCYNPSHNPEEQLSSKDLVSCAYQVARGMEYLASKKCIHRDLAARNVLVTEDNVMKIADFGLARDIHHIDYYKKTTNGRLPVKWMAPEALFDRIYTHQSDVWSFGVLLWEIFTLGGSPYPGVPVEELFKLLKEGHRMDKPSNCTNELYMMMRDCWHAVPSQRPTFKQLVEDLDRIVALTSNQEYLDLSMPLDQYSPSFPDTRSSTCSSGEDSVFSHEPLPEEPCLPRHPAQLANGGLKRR

FGFR3 (h) = FGFR3 (h) (Homo sapiens, UniProt P22607); assay: FGFR3 (enzymatic assay), TR-FRET; assay type: biochemical; conditions: read-out: FGFR 3 pIC50 (converted)
Chain of FGFR3 (h) (P22607 23-806): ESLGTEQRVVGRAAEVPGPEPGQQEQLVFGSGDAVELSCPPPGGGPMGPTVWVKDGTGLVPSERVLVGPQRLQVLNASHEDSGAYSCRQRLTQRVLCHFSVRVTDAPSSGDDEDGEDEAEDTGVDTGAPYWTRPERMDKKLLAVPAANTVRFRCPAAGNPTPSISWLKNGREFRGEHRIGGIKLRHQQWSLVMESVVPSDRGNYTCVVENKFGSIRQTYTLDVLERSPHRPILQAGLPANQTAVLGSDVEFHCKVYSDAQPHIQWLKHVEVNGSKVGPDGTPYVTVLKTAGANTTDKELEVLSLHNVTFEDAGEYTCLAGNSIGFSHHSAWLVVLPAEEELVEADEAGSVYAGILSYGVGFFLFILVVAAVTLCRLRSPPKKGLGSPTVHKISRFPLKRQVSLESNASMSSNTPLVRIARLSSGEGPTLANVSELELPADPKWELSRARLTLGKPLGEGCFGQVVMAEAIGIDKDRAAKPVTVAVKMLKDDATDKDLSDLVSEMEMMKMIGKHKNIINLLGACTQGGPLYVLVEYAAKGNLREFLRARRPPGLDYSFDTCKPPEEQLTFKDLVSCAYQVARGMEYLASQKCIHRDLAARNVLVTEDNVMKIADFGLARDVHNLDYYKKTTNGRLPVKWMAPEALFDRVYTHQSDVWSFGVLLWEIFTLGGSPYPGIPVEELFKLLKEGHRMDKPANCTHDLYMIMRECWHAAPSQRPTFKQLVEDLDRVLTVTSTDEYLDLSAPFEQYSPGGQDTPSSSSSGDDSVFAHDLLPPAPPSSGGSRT
Source text: Time-Resolved Fluorescence Resonance Energy Transfer (TR-FRET) signal (ex340 nm.

[2] = target: Ba/F3-FGFR4-transfected cells (Homo sapiens, UniProt P22455); assay: Ba/F3-FGFR4 cellular proliferation assay, Alamar Blue; assay type: cell-based
Chain of Ba/F3-FGFR4-transfected cells (P22455 whole entry, change not shown): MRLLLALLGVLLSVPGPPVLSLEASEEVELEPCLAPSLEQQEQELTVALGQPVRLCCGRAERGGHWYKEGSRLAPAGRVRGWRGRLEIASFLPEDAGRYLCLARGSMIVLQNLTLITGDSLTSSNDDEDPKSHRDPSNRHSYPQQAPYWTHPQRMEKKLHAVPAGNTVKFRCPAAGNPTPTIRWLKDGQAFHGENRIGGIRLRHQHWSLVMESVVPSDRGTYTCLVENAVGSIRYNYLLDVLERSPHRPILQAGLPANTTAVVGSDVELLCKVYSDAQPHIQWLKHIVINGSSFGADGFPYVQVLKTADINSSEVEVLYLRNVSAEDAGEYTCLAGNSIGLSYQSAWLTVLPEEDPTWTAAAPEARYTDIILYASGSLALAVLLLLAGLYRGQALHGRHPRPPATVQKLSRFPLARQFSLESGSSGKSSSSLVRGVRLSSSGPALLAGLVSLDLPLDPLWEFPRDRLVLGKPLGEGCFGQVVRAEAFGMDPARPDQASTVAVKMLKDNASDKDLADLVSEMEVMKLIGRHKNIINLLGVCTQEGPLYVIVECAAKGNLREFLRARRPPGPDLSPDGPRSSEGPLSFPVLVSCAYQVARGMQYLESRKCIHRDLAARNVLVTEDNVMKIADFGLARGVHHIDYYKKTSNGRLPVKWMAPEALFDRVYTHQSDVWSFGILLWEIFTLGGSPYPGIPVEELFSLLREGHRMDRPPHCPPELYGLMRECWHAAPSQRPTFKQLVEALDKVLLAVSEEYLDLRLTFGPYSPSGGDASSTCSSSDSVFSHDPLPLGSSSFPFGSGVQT
Method in brief: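 Compounds in DMSO were dispensed before 20000 Ba/F3-FGFR4-transfected cells per well were added in phenol red free RPMI-1640 with 10% FBS, 2 mM L-Glutamine. After 24 hours at 37° C and 5% CO2, Alamar Blue was added for 4 hours and fluorescence read (ex. 540 nm, em. 590 nm).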

[3] = test system: Ba/F3-FGFR1-transfected cells; assay: Ba/F3-FGFR1 (plus IL3) cellular proliferation assay, counterscreen with 10 ng/ml murine IL3; assay type: cell-based; conditions: plus IL3 (10 ng/ml murine IL3, counterscreen); read-out: BAF3-FGFR1 (PLUS IL3) pIC50 (converted)
Method in brief: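 Ba/F3-FGFR1 cells (20000/well) in RPMI-1640 with 10% FBS exposed to compound for 24 h at 37° C., 5% CO2, then Alamar Blue (resazurin) added for 4 h; fluorescence read at ex 540/em 590 nm. Counterscreen run identically with 10 ng/ml murine IL3.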

[4] = target: T2, Ba/F3-FGFR1-transfected cells (Homo sapiens, UniProt P11362); assay: Ba/F3-FGFR1 (minus IL3) cellular proliferation assay, Alamar Blue; assay type: cell-based
T2 construct: BAF3-FGFR1 (MIN IL3) pIC50; other: minus IL3
T2 sequence (P11362 whole entry, change not shown): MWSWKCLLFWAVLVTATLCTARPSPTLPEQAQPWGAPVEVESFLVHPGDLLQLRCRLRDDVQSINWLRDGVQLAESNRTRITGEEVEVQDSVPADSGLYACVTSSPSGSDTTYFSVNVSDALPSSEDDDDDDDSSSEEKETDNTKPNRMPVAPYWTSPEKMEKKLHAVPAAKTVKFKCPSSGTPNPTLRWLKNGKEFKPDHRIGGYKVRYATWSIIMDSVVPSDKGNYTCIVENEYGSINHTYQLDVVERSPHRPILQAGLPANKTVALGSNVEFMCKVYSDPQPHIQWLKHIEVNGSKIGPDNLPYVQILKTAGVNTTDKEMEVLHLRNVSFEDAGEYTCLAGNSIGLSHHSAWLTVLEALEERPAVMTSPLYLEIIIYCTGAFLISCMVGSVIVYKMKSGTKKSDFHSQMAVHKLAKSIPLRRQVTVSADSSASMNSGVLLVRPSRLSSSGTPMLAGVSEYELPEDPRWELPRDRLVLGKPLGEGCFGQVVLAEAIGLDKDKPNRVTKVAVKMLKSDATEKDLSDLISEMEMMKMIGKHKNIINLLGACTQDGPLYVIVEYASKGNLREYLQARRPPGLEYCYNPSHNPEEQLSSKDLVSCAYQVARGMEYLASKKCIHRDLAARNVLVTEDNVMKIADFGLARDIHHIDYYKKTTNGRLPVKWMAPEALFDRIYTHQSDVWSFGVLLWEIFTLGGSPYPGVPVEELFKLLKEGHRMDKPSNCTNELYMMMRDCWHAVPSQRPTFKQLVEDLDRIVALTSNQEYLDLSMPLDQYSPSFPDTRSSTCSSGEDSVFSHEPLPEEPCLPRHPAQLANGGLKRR
Method in brief: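 Viability of transfected Ba/F3-FGFR1 cells (20000 per well, RPMI-1640 with 10% FBS and 2 mM L-glutamine) was scored by resazurin-based Alamar Blue reduction over 4 h, after 24 h treatment with compound at 37 °C under 5% CO2.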

[5] = test system: Ba/F3-FGFR3-transfected cells; assay: Ba/F3-FGFR3 (plus IL3) cellular proliferation assay, counterscreen with 10 ng/ml murine IL3; assay type: cell-based; conditions: plus IL3 (10 ng/ml murine IL3, counterscreen); read-out: BAF3-FGFR3 (PLUS IL3) pIC50 (converted)
Method in brief: as §1

FGFR4 (h) = FGFR4 (h) (Homo sapiens, UniProt P22455); assay: FGFR4 (enzymatic assay), TR-FRET; assay type: biochemical; conditions: FGFR 4 pIC50, enzymatic assay
Chain of FGFR4 (h) (P22455 22-802): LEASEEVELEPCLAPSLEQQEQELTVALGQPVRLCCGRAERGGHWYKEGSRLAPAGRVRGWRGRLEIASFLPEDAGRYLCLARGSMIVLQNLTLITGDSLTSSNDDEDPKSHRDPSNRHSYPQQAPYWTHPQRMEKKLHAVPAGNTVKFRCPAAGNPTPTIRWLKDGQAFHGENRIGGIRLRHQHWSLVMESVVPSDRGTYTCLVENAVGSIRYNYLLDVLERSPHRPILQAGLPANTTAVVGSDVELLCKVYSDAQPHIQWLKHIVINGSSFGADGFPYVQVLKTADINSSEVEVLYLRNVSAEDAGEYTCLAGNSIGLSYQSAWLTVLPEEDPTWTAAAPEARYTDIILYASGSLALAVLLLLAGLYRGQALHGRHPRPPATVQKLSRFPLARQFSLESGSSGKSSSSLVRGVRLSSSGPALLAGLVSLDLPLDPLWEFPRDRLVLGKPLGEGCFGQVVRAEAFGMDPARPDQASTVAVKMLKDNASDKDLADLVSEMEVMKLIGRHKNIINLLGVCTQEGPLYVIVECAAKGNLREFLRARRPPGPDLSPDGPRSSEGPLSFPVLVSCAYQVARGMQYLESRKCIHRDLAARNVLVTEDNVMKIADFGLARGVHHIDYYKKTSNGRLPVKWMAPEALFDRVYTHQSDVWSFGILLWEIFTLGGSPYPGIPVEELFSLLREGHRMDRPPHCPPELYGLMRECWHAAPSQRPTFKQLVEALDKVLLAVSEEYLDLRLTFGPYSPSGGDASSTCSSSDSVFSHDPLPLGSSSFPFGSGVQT

SMILES | IC50 (KDR (h)) | BAF3-FGFR3 (MIN IL3) pIC50 [1] | IC50 (FGFR1 (h)) | IC50 (FGFR3 (h)) | BAF3-FGFR4 pIC50 [2] | IC50 [3] | BAF3-FGFR1 (MIN IL3) pIC50 [4] | IC50 [5] | IC50 (FGFR4 (h))
COc1cc(OC)cc(N(Cc2ncc[nH]2)c2ccc3ncc(-c4cccnc4)nc3n2)c1 [Compound 182] | 64.6 nM | ~7.76 | 1.7 nM | 1.15 nM | 7.17 | > 10000 nM | 7.60 | > 10000 nM | 2.34 nM
COc1cc(/N=c2\ccc3ncc(-c4cnn(C)c4)nc3n2Cc2cc(C)no2)c(F)c(OC)c1 [Compound 184] | 4.79 nM | ~8.15 | 0.977 nM | 1.35 nM | 8.03 | > 10000 nM | ~8.34 | > 10000 nM | 1.17 nM
COc1cc(OC)c(F)c(N(Cc2cc(C)no2)c2ccc3ncc(-c4cnn(C)c4)nc3n2)c1 [Compound 185] | 17.8 nM | 7.64 | 0.851 nM | 0.912 nM | 7.39 | > 10000 nM | 7.59 | > 10000 nM | 0.977 nM
COc1cc(OC)cc(N(Cc2noc(C)n2)c2ccc3ncc(-c4cnn(C)c4)nc3n2)c1 [Compound 186] | 45.7 nM | ~7.11 | 2.45 nM | 2.69 nM | 6.36 | > 10000 nM | 7.03 | > 10000 nM | 12 nM
COc1cc(OC)cc(N(Cc2nnc(N)o2)c2ccc3ncc(-c4cnn(C)c4)nc3n2)c1 [Compound 188] | 33.9 nM | ~7.15 | 1.66 nM | 0.933 nM | 6.62 | > 10000 nM | 6.78 | > 10000 nM | 1.62 nM
COc1cc(OC)c(F)c(N(Cc2ncc[nH]2)c2ccc3ncc(-c4cn[nH]c4)nc3n2)c1 [Compound 190] | 7.94 nM | ~8.15 | 0.617 nM | 1.23 nM | 8.08 | > 10000 nM | 8.19 | > 10000 nM | 1.12 nM
COc1cc(OC)c(F)c(N(Cc2ncc[nH]2)c2ccc3ncc(-c4cccnc4)nc3n2)c1 [Compound 190a] | 28.8 nM | 7.72 | 1.02 nM | 2 nM | 7.11 | > 10000 nM | 7.94 | > 10000 nM | 2.95 nM
COc1cc(OC)c(F)c(N(CC2CCC(=O)N2CCO)c2ccc3ncc(-c4cnn(C)c4)nc3n2)c1 (stereo not drawn) [Compound 194] | 126 nM | 6.16 | 11.2 nM | 8.51 nM | 5.50 | > 10000 nM | 6.30 | > 10000 nM | 44.7 nM
COc1cc(OC)c(F)c(N(Cc2cnn(C)c2)c2ccc3ncc(-c4cnn(C)c4)nc3n2)c1 [Compound 195] | 11.5 nM | 8.09 | 0.589 nM | 0.871 nM | 7.33 | > 10000 nM | 8.08 | > 10000 nM | 0.871 nM
COc1cc(/N=c2\ccc3ncc(-c4cnn(C)c4)nc3n2Cc2cnn(C)c2)c(F)c(OC)c1 [Compound 196] | 3.98 nM | ~8.66 | 0.407 nM | 0.912 nM | ~8.62 | > 10000 nM | 8.95 | > 10000 nM | ~0.891 nM
COc1cc(OC)cc(N(Cc2nn[nH]n2)c2ccc3ncc(-c4cnn(C)c4)nc3n2)c1 [Compound 197] | 145 nM | <5 | 22.4 nM | 14.5 nM | <5 | > 10000 nM | <5 | > 10000 nM | 34.7 nM
COc1cc(OC)cc(N(Cc2ncc[nH]2)c2ccc3ncc(-c4ccn(C)c4)nc3n2)c1 [Compound 198] | 4.57 nM | ~8.15 | 0.309 nM | 0.646 nM | 8.05 | > 10000 nM | 8.48 | > 10000 nM | 0.661 nM
COc1cc(OC)c(F)c(N(Cc2ncc[nH]2)c2ccc3ncc(-c4ccccc4)nc3n2)c1 [Compound 200] | ~9.55 nM | ~8.13 | 0.537 nM | 1.45 nM | 7.33 | > 10000 nM | 8.37 | > 10000 nM | 1.48 nM
COc1cc(OC)cc(N(Cc2ncc[nH]2)c2ccc3ncc(-c4ccncc4)nc3n2)c1 [Compound 202] | 61.7 nM | ~7.67 | 1.12 nM | 1.62 nM | 6.81 | > 10000 nM | 7.47 | > 10000 nM | 2.82 nM
COc1cc(OC)cc(N(Cc2nncn2CCO)c2ccc3ncc(-c4cnn(C)c4)nc3n2)c1 [Compound 204] | 302 nM | 6.09 | 11.2 nM | 15.1 nM | 5.49 | > 10000 nM | 6.15 | > 10000 nM | 60.3 nM
COc1cc(OC)cc(N(Cc2ncn(CCO)n2)c2ccc3ncc(-c4cnn(C)c4)nc3n2)c1 [Compound 205] | 38.9 nM | 6.20 | 3.89 nM | 14.5 nM | 5.62 | > 10000 nM | 6.31 | > 10000 nM | 47.9 nM
CCOCc1c[nH]c(CN(c2ccc3ncc(-c4cnn(C)c4)nc3n2)c2cc(OC)cc(OC)c2F)n1 [Compound 206] | 27.5 nM | ~8.12 | 1.38 nM | 2.51 nM | 7.34 | > 10000 nM | 7.89 | > 10000 nM | 2.95 nM
COc1cc(OC)c(F)c(N(Cc2ncc[nH]2)c2ccc3ncc(-c4cnn(C(CO)CCl)c4)nc3n2)c1 (stereo not drawn) [Compound 209] | 7.59 nM | 8.25 | 0.776 nM | 1.32 nM | 7.92 | > 10000 nM | 8.71 | > 10000 nM | 1.12 nM
COc1cc(OC)c(F)c(N(Cc2ncc[nH]2)c2ccc3ncc(-c4ccncc4)nc3n2)c1 [Compound 211] | 36.3 nM | ~8.11 | 1 nM | 1.51 nM | 7.29 | > 10000 nM | 8.08 | > 10000 nM | 2.29 nM
COc1cc(OC)cc(N(CCO)c2ccc3ncc(-c4ccncc4)nc3n2)c1 [Compound 213] | 245 nM | ~6.7 | 4.27 nM | 3.8 nM | 6.15 | > 10000 nM | 6.57 | > 10000 nM | 25.1 nM
COC(=O)CN(c1ccc2ncc(-c3cnn(C)c3)nc2n1)c1cc(OC)cc(OC)c1F [Compound 214] | 145 nM | ~7.18 | 2.4 nM | 2.4 nM | 6.52 | > 10000 nM | 7.08 | > 10000 nM | 11.2 nM
